Earlier results in patent publication US20140255430A1, “METHODS AND REAGENTS FOR DETECTION AND TREATMENT OF ESOPHAGEAL METAPLASIA” (NATIONAL UNIVERSITY OF SINGAPORE, priority 2010, published 2014).

Target: T1, PPARgamma (Homo sapiens, UniProt P37231)
T1 sequence (P37231 1-505): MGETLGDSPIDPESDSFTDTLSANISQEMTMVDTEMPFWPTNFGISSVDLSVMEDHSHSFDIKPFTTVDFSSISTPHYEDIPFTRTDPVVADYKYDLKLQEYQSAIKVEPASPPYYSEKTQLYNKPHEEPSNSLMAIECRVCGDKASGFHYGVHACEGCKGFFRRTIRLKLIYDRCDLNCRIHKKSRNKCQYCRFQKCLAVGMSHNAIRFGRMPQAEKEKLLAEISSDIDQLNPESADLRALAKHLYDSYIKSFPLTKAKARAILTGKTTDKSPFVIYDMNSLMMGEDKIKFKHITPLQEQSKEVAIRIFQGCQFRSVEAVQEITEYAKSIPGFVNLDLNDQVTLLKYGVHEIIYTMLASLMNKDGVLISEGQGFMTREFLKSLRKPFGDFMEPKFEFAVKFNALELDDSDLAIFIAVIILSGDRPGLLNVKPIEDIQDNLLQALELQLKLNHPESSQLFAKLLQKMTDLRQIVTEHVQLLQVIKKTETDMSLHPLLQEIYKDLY
Settings: irreversible inhibitor

- IC50 for suppression of PPARgamma: nanomolar
Structure (SMILES): O=C(Nc1ccccc1)c1cc([N+](=O)[O-])ccc1Cl [GW-9662, 2-Chloro-5-nitro-N-phenyl-benzamide]
